Results taken from PubChem BioAssay (NCI).
“And” between values parts separate entries of the source, which are not always exact repeats. Identical values can stand only once.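 Following 48 hours of exposure in 96-well plates, responses at five concentrations were used to interpolate endpoints linearly. GI50 marks 50% less growth. TGI denotes the concentration required for complete inhibition of growth.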

What was measured:
Assay in all cases: inhibition of tumour cell growth, NCI panel, 48 h
NCI-H460 lung = test system: NCI-H460 lung
NCI/ADR-RES ovarian = test system: NCI/ADR-RES ovarian
SK-MEL-2 melanoma = test system: SK-MEL-2 melanoma
A498 renal = test system: A498 renal
OVCAR-4 ovarian = test system: OVCAR-4 ovarian
SF-268 CNS = test system: SF-268 CNS
HOP-62 NSCLC = test system: HOP-62 NSCLC
CCRF-CEM leukemia = test system: CCRF-CEM leukemia
U251 CNS = test system: U251 CNS
K-562 leukemia = test system: K-562 leukemia

CCN(CC)CCn1c2ccccc2c(=O)c2c(O)ccc(O)c21
TGI (NCI-H460 lung): > 71.9 µM
TGI (NCI/ADR-RES ovarian): 44 µM
TGI (SK-MEL-2 melanoma): 50.4 µM
TGI (A498 renal): > 100 µM
TGI (OVCAR-4 ovarian): 34.5 µM
TGI (SF-268 CNS): 52.7 µM
TGI (HOP-62 NSCLC): 86.5 µM
TGI (CCRF-CEM leukemia): > 90.2 µM
TGI (U251 CNS): 74.1 µM
TGI (K-562 leukemia): 68.5 µM

Cc1ccc2nc(-c3ccccc3)c(N=O)n2c1
TGI (NCI-H460 lung): > 100 µM
TGI (NCI/ADR-RES ovarian): > 100 µM
TGI (SK-MEL-2 melanoma): > 100 µM
TGI (A498 renal): > 100 µM
TGI (OVCAR-4 ovarian): > 100 µM
TGI (SF-268 CNS): > 100 µM
TGI (HOP-62 NSCLC): > 100 µM
TGI (CCRF-CEM leukemia): > 100 µM
TGI (U251 CNS): > 100 µM
TGI (K-562 leukemia): > 100 µM

Cc1cc(Cc2cc(C)cc(C(C)(C)C)c2O)c(O)c(Cc2cc(C)cc(C(C)(C)C)c2O)c1
TGI (NCI-H460 lung): 4.22 µM
TGI (NCI/ADR-RES ovarian): 12.6 µM
TGI (SK-MEL-2 melanoma): 6.7 µM
TGI (A498 renal): 7.2 µM
TGI (OVCAR-4 ovarian): 11.7 µM
TGI (SF-268 CNS): 9.92 µM
TGI (HOP-62 NSCLC): 7.94 µM
TGI (CCRF-CEM leukemia): 8.31 µM
TGI (U251 CNS): 10.3 µM
TGI (K-562 leukemia): 6.33 µM

COc1cc(NC(=O)CSc2nc3ccc(C)cc3c(=O)n2Cc2ccccc2)cc(OC)c1OC
GI50 (NCI-H460 lung): 7.24 µM
TGI (NCI-H460 lung): > 100 µM
GI50 (NCI/ADR-RES ovarian): 8.97 µM
TGI (NCI/ADR-RES ovarian): > 100 µM
GI50 (SK-MEL-2 melanoma): 3.38 µM
TGI (SK-MEL-2 melanoma): 10.6 µM
GI50 (A498 renal): 1.01 µM
TGI (A498 renal): 5.55 µM
GI50 (OVCAR-4 ovarian): 3.41 µM
TGI (OVCAR-4 ovarian): 33.3 µM
GI50 (SF-268 CNS): 6.91 µM
TGI (SF-268 CNS): > 100 µM
GI50 (HOP-62 NSCLC): 2.3 µM
TGI (HOP-62 NSCLC): 5.8 µM
GI50 (CCRF-CEM leukemia): > 100 µM
TGI (CCRF-CEM leukemia): > 100 µM
GI50 (U251 CNS): 3.93 µM
TGI (U251 CNS): 24 µM
GI50 (K-562 leukemia): > 100 µM
TGI (K-562 leukemia): > 100 µM

COc1cc(/C=N/NC(=O)c2cnn3c2NC(c2ccccc2)C3)ccc1Oc1ccccc1 (configuration not stated)
GI50 (NCI-H460 lung): 0.875 µM
TGI (NCI-H460 lung): 2.83 µM
GI50 (NCI/ADR-RES ovarian): 1.73 µM
TGI (NCI/ADR-RES ovarian): 9.59 µM
GI50 (SK-MEL-2 melanoma): 1.14 µM
TGI (SK-MEL-2 melanoma): 4.89 µM
GI50 (A498 renal): 1.18 µM
TGI (A498 renal): 7.03 µM
GI50 (OVCAR-4 ovarian): 1.41 µM
TGI (OVCAR-4 ovarian): 3.78 µM
GI50 (SF-268 CNS): 2.46 µM
TGI (SF-268 CNS): 14.6 µM
GI50 (HOP-62 NSCLC): 1.18 µM
TGI (HOP-62 NSCLC): 4.34 µM
GI50 (CCRF-CEM leukemia): 1.43 µM
TGI (CCRF-CEM leukemia): > 100 µM
GI50 (U251 CNS): 1.31 µM
TGI (U251 CNS): 3.59 µM
GI50 (K-562 leukemia): 0.571 µM
TGI (K-562 leukemia): 18.6 µM

CN(C)CC1C(=O)O[C@H]2[C@H]1CC/C(COC(=O)c1cc3ccccc3[nH]1)=C\CC[C@@]1(C)O[C@@H]21 (some centres not stated)
GI50 (NCI-H460 lung): 7.35 µM
TGI (NCI-H460 lung): 25.6 µM
GI50 (NCI/ADR-RES ovarian): 1.76 µM
TGI (NCI/ADR-RES ovarian): 4.6 µM
GI50 (SK-MEL-2 melanoma): 1.98 µM
TGI (SK-MEL-2 melanoma): 5.51 µM
GI50 (A498 renal): 11.1 µM
TGI (A498 renal): 23.9 µM
GI50 (OVCAR-4 ovarian): 1.57 µM
TGI (OVCAR-4 ovarian): 3.68 µM
GI50 (SF-268 CNS): 1.65 µM
TGI (SF-268 CNS): 3.43 µM
GI50 (HOP-62 NSCLC): 2.72 µM
TGI (HOP-62 NSCLC): 7.98 µM
GI50 (CCRF-CEM leukemia): 0.432 µM
TGI (CCRF-CEM leukemia): 15.9 µM
GI50 (U251 CNS): 2.3 µM
TGI (U251 CNS): 5.71 µM
GI50 (K-562 leukemia): 1.14 µM
TGI (K-562 leukemia): 6.11 µM

CC[C@@]1(OC(=O)CN)C(=O)OCc2c1cc1n(c2=O)Cc2cc3c(N)cccc3nc2-1
GI50 (NCI-H460 lung): < 0.01 µM
TGI (NCI-H460 lung): 0.114 µM
GI50 (NCI/ADR-RES ovarian): < 0.01 µM
TGI (NCI/ADR-RES ovarian): 0.258 µM
GI50 (SK-MEL-2 melanoma): 0.132 µM
TGI (SK-MEL-2 melanoma): 0.49 µM
GI50 (A498 renal): < 0.016 µM
TGI (A498 renal): 0.156 µM
GI50 (OVCAR-4 ovarian): 0.211 µM
TGI (OVCAR-4 ovarian): 3.32 µM
GI50 (SF-268 CNS): < 0.01 µM
TGI (SF-268 CNS): > 100 µM
GI50 (HOP-62 NSCLC): < 0.01 µM
GI50 (CCRF-CEM leukemia): < 0.01 µM
TGI (CCRF-CEM leukemia): > 100 µM
GI50 (U251 CNS): < 0.01 µM
TGI (U251 CNS): 0.405 µM
GI50 (K-562 leukemia): < 0.0367 µM

COc1ccc(-n2cc(-c3cc(OC)c(OC)c(OC)c3)nc2SCc2ccccc2)cc1OC
GI50 (NCI-H460 lung): > 100 µM
TGI (NCI-H460 lung): > 100 µM
GI50 (NCI/ADR-RES ovarian): > 100 µM
TGI (NCI/ADR-RES ovarian): > 100 µM
GI50 (SK-MEL-2 melanoma): > 100 µM
TGI (SK-MEL-2 melanoma): > 100 µM
GI50 (A498 renal): > 100 µM
TGI (A498 renal): > 100 µM
GI50 (OVCAR-4 ovarian): > 81.4 µM
TGI (OVCAR-4 ovarian): > 100 µM
GI50 (SF-268 CNS): > 100 µM
TGI (SF-268 CNS): > 100 µM
GI50 (HOP-62 NSCLC): > 100 µM
TGI (HOP-62 NSCLC): > 100 µM
GI50 (CCRF-CEM leukemia): > 100 µM
TGI (CCRF-CEM leukemia): > 100 µM
GI50 (U251 CNS): 50 µM
TGI (U251 CNS): > 100 µM
GI50 (K-562 leukemia): 54.7 µM
TGI (K-562 leukemia): > 100 µM

CCOC(=O)/C(=C\c1ccc(C#N)cc1)C(C)=O
TGI (NCI-H460 lung): > 100 µM
TGI (NCI/ADR-RES ovarian): > 100 µM
TGI (SK-MEL-2 melanoma): 31.3 µM
TGI (A498 renal): 30 µM
TGI (OVCAR-4 ovarian): 97.9 µM
TGI (SF-268 CNS): 87.2 µM
TGI (HOP-62 NSCLC): > 100 µM
TGI (CCRF-CEM leukemia): > 100 µM
TGI (U251 CNS): 32.7 µM
TGI (K-562 leukemia): > 100 µM

N#CC1=C(N)Oc2c(sc3c(Br)cccc23)C1c1ccc(Br)cc1 (configuration not stated)
GI50 (NCI-H460 lung): 0.668 µM
TGI (NCI-H460 lung): 4.51 µM
GI50 (NCI/ADR-RES ovarian): 0.416 µM
TGI (NCI/ADR-RES ovarian): 5.14 µM
GI50 (SK-MEL-2 melanoma): 0.434 µM
TGI (SK-MEL-2 melanoma): 4 µM
GI50 (A498 renal): 0.633 µM
TGI (A498 renal): 9.56 µM
GI50 (OVCAR-4 ovarian): 1.46 µM
TGI (OVCAR-4 ovarian): 15.5 µM
GI50 (SF-268 CNS): 1.15 µM
TGI (SF-268 CNS): 10 µM
GI50 (HOP-62 NSCLC): 0.41 µM
TGI (HOP-62 NSCLC): 2.62 µM
GI50 (CCRF-CEM leukemia): 0.496 µM
TGI (CCRF-CEM leukemia): 13.6 µM
GI50 (U251 CNS): 0.544 µM
TGI (U251 CNS): 2.05 µM
GI50 (K-562 leukemia): 0.137 µM
TGI (K-562 leukemia): 3.16 µM

CN1C(=O)C(CC(=O)O)NC1=S (configuration not stated)
TGI (NCI-H460 lung): > 100 µM
TGI (NCI/ADR-RES ovarian): > 100 µM
TGI (SK-MEL-2 melanoma): > 100 µM
TGI (A498 renal): > 100 µM
TGI (SF-268 CNS): > 100 µM
TGI (HOP-62 NSCLC): > 100 µM
TGI (CCRF-CEM leukemia): > 100 µM
TGI (U251 CNS): > 100 µM
TGI (K-562 leukemia): > 100 µM

Oc1[nH]c2c(Br)cccc2c1C1=Nc2ccccc2/C1=N/OCCN1CCCC1
GI50 (NCI-H460 lung): 0.325 µM
TGI (NCI-H460 lung): 2.4 µM
GI50 (NCI/ADR-RES ovarian): 0.793 µM and 0.766 µM
GI50 (SK-MEL-2 melanoma): 2.21 µM
GI50 (A498 renal): 0.739 µM and 1.34 µM
TGI (A498 renal): 2.21 µM and 7.36 µM
GI50 (OVCAR-4 ovarian): 1.14 µM
TGI (OVCAR-4 ovarian): 3.35 µM
GI50 (SF-268 CNS): 0.813 µM
GI50 (HOP-62 NSCLC): 0.704 µM
TGI (HOP-62 NSCLC): 2.65 µM
GI50 (CCRF-CEM leukemia): 0.741 µM and 1.12 µM
GI50 (U251 CNS): 1.09 µM
TGI (U251 CNS): 2.77 µM
GI50 (K-562 leukemia): 0.424 µM
